For one experiment, the system named is armyworm. Put plainly: bioactivity test against armyworm, airbrush spray. The class given is in vivo. As to conditions: 72 h, read-out: Insecticidal activity against armyworm (%); for pest or weed control at 600 µg/mL: 600 mg/L.
The test system of another experiment is wheat powdery mildew. The experiment in a line: protectant activity in vivo against wheat powdery mildew. As to conditions: Triticum aestivum, 168 h, protectant activity; for pest or weed control at 6.25 µg/mL: read-out: control effect against wheat powdery mildew (%), 6.25 mg/L; for pest or weed control at 25 µg/mL: read-out: control effect against wheat powdery mildew (%), 25 mg/L; for pest or weed control at 100 µg/mL: read-out: control effect against wheat powdery mildew (%), 100 mg/L; for pest or weed control at 400 µg/mL: read-out: control effect against wheat powdery mildew (%), 400 mg/L.

The test system of experiment [1] is Green peach aphids (Myzus Persicae Sulzer). The experiment in a line: bioactivity test against green peach aphid, airbrush foliar spray. The class given is in vivo. As to conditions: Myzus persicae, foliar, 48 h, contrastive test, read-out: Insecticidal activity against peach aphid (%); for pest or weed control at 10 µg/mL: 10 mg/L; for pest or weed control at 100 µg/mL: 100 mg/L; for pest or weed control at 600 µg/mL: 600 mg/L. In short, it runs like this:
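Death rate was scored at 48 hrs, held at 25±1 C and 60±5% RH, following airbrush foliar spray (0.5 mL, 10 psi) onto cabbage leaf discs bearing about 15-30 aphids. Test solutions: compound dissolved in 1:1 acetone:methanol, brought to concentration with 0.1% tween 80 water.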

A further experiment deals with rice blast. Put plainly: microbe, parasite or virus in culture. The class given is cell-based. Particulars: Pyricularia oryzae; for inhibition at 25 ppm: read-out: inhibition rate against rice blast, 25 ppm, in vitro; for inhibition at 8.3 ppm: read-out: inhibition rate against rice blast, 8.3 ppm, in vitro.
Another experiment relates to corn rust. The experiment in a line: protectant activity in vivo against corn rust. As to conditions: Zea mays, 168 h, protectant activity; for pest or weed control at 6.25 µg/mL: read-out: control effect against corn rust (%), 6.25 mg/L; for pest or weed control at 25 µg/mL: read-out: control effect against corn rust (%), 25 mg/L; for pest or weed control at 100 µg/mL: read-out: control effect against corn rust (%), 100 mg/L; for pest or weed control at 400 µg/mL: read-out: control effect against corn rust (%), 400 mg/L.

A further experiment relates to cucumber downy mildew. The experiment in a line: protectant activity in vivo against cucumber downy mildew. Particulars: Cucumis sativus, 168 h, protectant activity; for pest or weed control at 25 µg/mL: read-out: control effect against cucumber downy mildew (%), 25 mg/L; for pest or weed control at 50 µg/mL: read-out: control effect against cucumber downy mildew (%), 50 mg/L; for pest or weed control at 100 µg/mL: read-out: control effect against cucumber downy mildew (%), 100 mg/L; for pest or weed control at 400 µg/mL: read-out: control effect against cucumber downy mildew (%), 400 mg/L.

A further experiment concerns Diamond back moth. Put plainly: insecticidal activity against diamond back moth, airbrush spray. Format: in vivo. As to conditions: 72 h; for pest or weed control at 600 µg/mL: 600 mg/L. In short, it runs like this:
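Airbrush leaf-disc spray test: both faces of 2 cm cabbage discs received 0.5 ml of test solution at 0.7 kg/cm^2. Solutions were made in acetone:methanol (1:1) and brought to concentration with 0.1% Tween 80 in water. Ten second-instar larvae per disc, triplicates, were held at 25° C and 60˜70% R.H., with mortality recorded at 72 hrs.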

A further experiment concerns carmine spider mite. Put plainly: bioactivity test against carmine spider mite, airbrush spray. The class given is in vivo. As to conditions: Tetranychus cinnabarinus, 72 h, contrastive test, read-out: Insecticidal activity against carmine spider mite (% ); for pest or weed control at 10 µg/mL: 10 mg/L; for pest or weed control at 100 µg/mL: 100 mg/L; for pest or weed control at 600 µg/mL: 600 mg/L. In short, it runs like this:
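Broadbean seedlings infested with adult mites were sprayed with compound (acetone/methanol stock diluted in 0.1% Tween 80 water) by airbrush at 0.7 kg/cm^2, 0.5 ml. Three replicates were run. Mortality was scored after 72 hrs.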

The next experiment deals with cucumber gray mold. Put plainly: fungicidal activity in vitro (inhibition rate) against cucumber gray mold. Format: cell-based. Particulars: 25 ppm, in vitro; read-out: inhibition rate against cucumber gray mold.

Where only a bound is given, the exact number is not on record here.

Regarding `CCc1ncnc(OC(CC)c2ccc(Oc3ccc(C(F)(F)F)cn3)cc2)c1Cl` (stereo not shown) [CK15, reference compound], the pest or weed control at 600 µg/mL in the experiment with armyworm worked out at 0%; in [1], 69%; with Diamond back moth, 17%; in the experiment with carmine spider mite it was 59%. Moreover, the pest or weed control at 6.25 µg/mL with wheat powdery mildew and in the experiment on corn rust was 0% in each case. The results for the pest or weed control at 25 µg/mL in the experiment on wheat powdery mildew, in the experiment on corn rust and in the experiment on cucumber downy mildew were 10%, 30% and 0%, respectively. Further, the pest or weed control at 100 µg/mL was 85% with wheat powdery mildew; 40% in experiment [1]; 85% with corn rust; 15% in the experiment on cucumber downy mildew; 15% in the experiment on Diamond back moth (100 mg/L); 0% with carmine spider mite. Further, the pest or weed control at 400 µg/mL with wheat powdery mildew, in the experiment on corn rust and in the experiment on cucumber downy mildew was 95% in each case. Besides, the pest or weed control at 10 µg/mL (in experiment [1]; with Diamond back moth (10 mg/L); with carmine spider mite) was 0% in each case. For the same molecule, the inhibition at 25 ppm with rice blast and with cucumber gray mold was 0% each time. In addition, in the experiment with cucumber downy mildew, the pest or weed control at 50 µg/mL was 0%.
As to `Cc1ncnc(NC(C)c2cccc3ccccc23)c1Cl` (stereo not shown) [CK17, reference compound], the pest or weed control at 600 µg/mL was determined as 0% in the experiment with armyworm, 0% in experiment [1], 0% in the experiment on Diamond back moth and 40% in the experiment with carmine spider mite. Further, the pest or weed control at 6.25 µg/mL in the experiment with wheat powdery mildew amounted to 50%; with corn rust it was 0%. Also, the pest or weed control at 25 µg/mL in the experiment on wheat powdery mildew is 70%; in the experiment with corn rust, 0%; in the experiment with cucumber downy mildew, 0%. The values for the pest or weed control at 100 µg/mL with wheat powdery mildew, with corn rust and with cucumber downy mildew were 75%, 0% and 40%, respectively. Moreover, the pest or weed control at 400 µg/mL in the experiment with wheat powdery mildew, in the experiment on corn rust and in the experiment on cucumber downy mildew was 100% throughout. The inhibition at 2.8 ppm with rice blast (read-out: inhibition rate against rice blast, 2.8 ppm, in vitro) was 0%. The inhibition at 8.3 ppm with rice blast was 50%. Besides, in the experiment with cucumber downy mildew, the pest or weed control at 50 µg/mL is 10%. The inhibition at 25 ppm in the experiment with cucumber gray mold turned out to be 0%.
For `Cc1ncnc(NCc2ccc(Oc3nc(Cl)c(Cl)cc3Cl)cc2)c1Cl` [CK33, reference compound], the pest or weed control at 10 µg/mL in the experiment on armyworm (10 mg/L) was found to be 0%. The pest or weed control at 100 µg/mL with armyworm (100 mg/L) turned out to be 0%. In addition, the pest or weed control at 600 µg/mL amounted to 100% in the experiment on armyworm, 0% in experiment [1], 29% with Diamond back moth and 41% in the experiment with carmine spider mite. Besides, the pest or weed control at 400 µg/mL with wheat powdery mildew, in the experiment on corn rust and in the experiment on cucumber downy mildew was 0% each time. In addition, the inhibition at 25 ppm in the experiment with rice blast was below 50%; with cucumber gray mold it was 0%.
Turning to `CCC(Nc1nc(Cl)nc(C(=O)OC)c1Cl)c1ccc(Oc2ncc(C(F)(F)F)cc2Cl)cc1` (stereo not shown) [CK35, reference compound], the pest or weed control at 600 µg/mL (in the experiment on armyworm; in experiment [1]; in the experiment with Diamond back moth; in the experiment with carmine spider mite) was 0% in each case. Besides, the pest or weed control at 400 µg/mL was found to be 0% with wheat powdery mildew, 0% with corn rust and 60% in the experiment with cucumber downy mildew. The figures for the inhibition at 25 ppm in the experiment on rice blast and in the experiment on cucumber gray mold were below 50% and 0%, respectively.
As to `Cc1nc(C)c(Cl)c(NCc2ccc(OCc3ccccc3)cc2)n1` [CK52, reference compound], the pest or weed control at 600 µg/mL in the experiment with armyworm is 0%; in [1], 88%; in the experiment with Diamond back moth it was 20%; in the experiment on carmine spider mite, 44%. Also, the pest or weed control at 400 µg/mL with wheat powdery mildew turned out to be 0%; in the experiment with corn rust, 85%; in the experiment with cucumber downy mildew it was 100%. Also, in experiment [1], the pest or weed control at 10 µg/mL is 0%. Besides, the pest or weed control at 100 µg/mL is 0% in experiment [1] and 98% with cucumber downy mildew. In the experiment on rice blast, the inhibition at 8.3 ppm was found to be 0%. Besides, in the experiment on cucumber downy mildew, the pest or weed control at 25 µg/mL was determined as 70%. Further, the pest or weed control at 50 µg/mL in the experiment with cucumber downy mildew turned out to be 90%. In addition, the inhibition at 25 ppm in the experiment with cucumber gray mold was determined as 0%.
As to `CCc1ncnc(NC(=O)Cc2ccc(Oc3ccc(C(F)(F)F)cn3)cc2)c1Cl` [CK55, reference compound], the pest or weed control at 600 µg/mL (in the experiment with armyworm; in experiment [1]; in the experiment on Diamond back moth; in the experiment with carmine spider mite) was 0% each time. Also, the pest or weed control at 400 µg/mL with wheat powdery mildew is 60%; in the experiment with corn rust, 0%; in the experiment with cucumber downy mildew, 100%. In addition, the inhibition at 25 ppm with rice blast was below 50%; in the experiment with cucumber gray mold, 0%. Besides, the pest or weed control at 25 µg/mL in the experiment on cucumber downy mildew was determined as 0%. For the same molecule, the pest or weed control at 50 µg/mL in the experiment on cucumber downy mildew is 0%. Besides, the pest or weed control at 100 µg/mL in the experiment with cucumber downy mildew was determined as 0%.
For the molecule `Cc1ncnc(NC(=O)Cc2ccc(Oc3ccc(C(F)(F)F)cn3)cc2)c1Cl` [CK56, reference compound], the pest or weed control at 600 µg/mL came out at 0% with armyworm, 100% in experiment [1], 0% in the experiment on Diamond back moth and 32% in the experiment with carmine spider mite. Besides, the pest or weed control at 400 µg/mL with wheat powdery mildew was 70%; in the experiment on corn rust, 70%; with cucumber downy mildew, 100%. The pest or weed control at 10 µg/mL (in [1]; in the experiment on carmine spider mite) was 0% in each case. For the same molecule, the pest or weed control at 100 µg/mL in experiment [1] turned out to be 0%; in the experiment on cucumber downy mildew, 10%; in the experiment with carmine spider mite it was 25%. Also, the inhibition at 25 ppm in the experiment on rice blast and in the experiment on cucumber gray mold was below 50% each time. For the same molecule, the pest or weed control at 25 µg/mL in the experiment on cucumber downy mildew stood at 0%. Moreover, in the experiment with cucumber downy mildew, the pest or weed control at 50 µg/mL is 0%.
As for `Cc1ncnc(NC(=O)Cc2ccc(Oc3ccc(C(F)(F)F)cc3Cl)cc2)c1Cl` [CK58, reference compound], the pest or weed control at 600 µg/mL in the experiment with armyworm came out at 0%; in [1], 100%; in the experiment on Diamond back moth, 0%; in the experiment on carmine spider mite it was 0%. Further, the pest or weed control at 400 µg/mL in the experiment on wheat powdery mildew, in the experiment on corn rust and in the experiment with cucumber downy mildew was 0% each time. In addition, the pest or weed control at 10 µg/mL in experiment [1] was 0%. For the same molecule, the pest or weed control at 100 µg/mL in experiment [1] came to 0%. For the same molecule, the inhibition at 25 ppm in the experiment on rice blast was below 50%; in the experiment with cucumber gray mold it was 0%.
In the case of `CCc1ncnc(NC(=O)Cc2ccc(Oc3ccc(C(F)(F)F)cc3)cc2)c1Cl` [CK59, reference compound], the pest or weed control at 600 µg/mL in the experiment with armyworm was 14%; in experiment [1], 75%; in the experiment with Diamond back moth it was 57%; in the experiment with carmine spider mite it was 0%. The pest or weed control at 400 µg/mL in the experiment on wheat powdery mildew is 0%; with corn rust it was 0%; with cucumber downy mildew it was 80%. Further, in experiment [1], the pest or weed control at 10 µg/mL was found to be 0%. Further, the pest or weed control at 100 µg/mL in experiment [1] stood at 15%. The inhibition at 25 ppm in the experiment on rice blast and in the experiment with cucumber gray mold was 0% throughout.

As usually defined, the inhibition is the relative decrease from the control value, in per cent.

For the origin of these results see US9770026B2, “Substituted pyrimidine compound and uses thereof” (Shenyang Sinochem Agrochemicals R&D Co., Ltd., priority 2012, dated 2017).
